Legend:
RT-112/84 cell line = test: Luminescent Viability Assay (CellTiter-Glo); type: cell-based; conditions: RT-112/84 cell line (bladder, FGFR3-TACC3), 3 days
Experimental: RT112 cells (cell lines and genetic profiles further detailed in Table 2) were purchased from ATCC (Manassas, VA) and maintained in RPMI, 10% FBS (Gibco/Life Technologies). To measure the effect of test compounds on the viability of cells, the cells were plated with RPMI 10% FBS (5×10^3 cells/well/in 50 μL) into black 96-well Greiner polystyrene in the presence or absence of 50 μL of a concentration range of test compounds. After 3 days, 100 μL of CellTiter-Glo Reagent (Promega) was added. Luminescence was read with a TopCount (PerkinElmer). IC50 determination was performed by fitting the curve of percent inhibition versus the log of the inhibitor concentration using the GraphPad Prism 5.0 software.

[1] = molecular target: wild-type un-phosphorylated FGFR3 protein (Homo sapiens, UniProt P22607); test: FGFR Enzymatic Assay (FRET peptide phosphorylation); type: biochemical; conditions: pre-incubated for 4 hours
Chain of wild-type un-phosphorylated FGFR3 protein (P22607 23-806): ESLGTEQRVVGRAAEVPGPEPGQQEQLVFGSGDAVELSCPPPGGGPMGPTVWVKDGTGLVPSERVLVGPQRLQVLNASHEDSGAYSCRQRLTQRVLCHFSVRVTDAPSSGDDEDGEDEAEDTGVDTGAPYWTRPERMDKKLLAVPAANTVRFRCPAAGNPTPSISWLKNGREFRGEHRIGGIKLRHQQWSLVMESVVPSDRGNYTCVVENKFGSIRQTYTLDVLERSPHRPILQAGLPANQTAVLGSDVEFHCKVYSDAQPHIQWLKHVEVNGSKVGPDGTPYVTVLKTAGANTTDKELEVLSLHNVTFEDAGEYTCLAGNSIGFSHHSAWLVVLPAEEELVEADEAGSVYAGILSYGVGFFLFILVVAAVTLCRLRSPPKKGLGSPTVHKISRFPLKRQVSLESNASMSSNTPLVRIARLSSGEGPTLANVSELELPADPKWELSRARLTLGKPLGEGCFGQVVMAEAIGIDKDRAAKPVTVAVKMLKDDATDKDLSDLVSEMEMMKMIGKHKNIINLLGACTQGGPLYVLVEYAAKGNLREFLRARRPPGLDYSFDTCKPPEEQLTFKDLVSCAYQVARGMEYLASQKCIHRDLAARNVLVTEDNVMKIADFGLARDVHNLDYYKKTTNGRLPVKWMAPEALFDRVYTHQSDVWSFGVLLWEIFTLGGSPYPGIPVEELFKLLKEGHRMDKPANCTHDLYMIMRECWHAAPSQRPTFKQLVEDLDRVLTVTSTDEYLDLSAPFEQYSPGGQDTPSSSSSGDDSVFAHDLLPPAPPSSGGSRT
Experimental: The inhibitor potency of the exemplified compounds was determined in an enzyme discontinuous assay that measures peptide phosphorylation using FRET measurements to detect product formation. Inhibitors were serially diluted in DMSO and a volume of 0.2 μL was transferred to the wells of a 384-well plate. A 5 μL/well volume of enzyme isoforms of FGFR (-1, -2, -3 wild-type and mutant isoforms, -4) including phosphorylated and un-phosphorylated proteins diluted in assay buffer (50 mM HEPES, 10 mM MgCl2, 1 mM EGTA, 0.01% Tween-20, 5 mM DTT, pH 7.5) was added to the plate and pre-incubated with inhibitor for 5 to 15 minutes at ambient temperature. Appropriate controls (enzyme blank and enzyme with no inhibitor) were included on the plate. The reaction was initiated by the addition of a 5 μL/well volume containing both biotinylated [sequence] peptide substrate (SEQ ID NO: 1) and ATP in assay buffer. The 10 μL/well reaction concentration of the peptide substrate was 500 nM whereas the ATP concentration was maintained near or below the ATP Km. The ATP Km values were pre-determined in a separate series of experiments. The reaction plate was incubated at 25° C. for 1 hr and the reactions were ended with the addition of 5 μL/well of quench solution (50 mM Tris, 150 mM NaCl, 0.5 mg/mL BSA, pH 7.8; 45 mM EDTA, 600 nM staurosporin, with Perkin Elmer Lance Reagents at 3.75 nM Eu-antibody PY20 and 180 nM APC-Streptavidin). The plate was allowed to equilibrate for ˜10 minutes at ambient temperature before scanning on a PheraStar plate reader (BMG Labtech) instrument.
Either GraphPad prism or XLfit was used to analyze the data. The IC50 values were derived by fitting the data to a four parameter logistic equation producing a sigmoidal dose-response curve with a variable Hill coefficient. Prism equation: Y=Bottom+(Top−Bottom)/(1+10^((Log IC50−X)*Hill slope)); XLfit equation: Y=(A+((B−A)/(1+((X/C)^D)))) where X is the logarithm of inhibitor concentration and Y is the response.

COCC(=O)N1CC(Cn2cc(-c3cnc4ccn5c(CO)c(-c6c(Cl)cccc6Cl)nc5c4c3)cn2)C1 [Example 27, 1-(3-((4-(2-(2,6-Dichlorophenyl)-3-(hydroxymethyl)imidazo[2,1-f][1,6]naphthyridin-9-yl)-1H-pyrazol-1-yl)methyl)azetidin-1-yl)-2-methoxyethan-1-one] was tested, and the IC50 (RT-112/84 cell line; Homo sapiens, RT112/84, 72 h) was 10 to 50 nM and the IC50 [1] was 1 to 5 nM.
With Cc1c(-c2c(Cl)cccc2Cl)nc2c3cc(-c4cnn(C5CN(C(=O)c6nnn(C)n6)C5)c4)cnc3ccn12 [Example 14, (3-(4-(2-(2,6-Dichlorophenyl)-3-methylimidazo[2,1-J][1,6]naphthyridin-9-yl)-1H-pyrazol-1-yl)azetidin-1-yl)(2-methyl-2H-tetrazol-5-yl)methanone] the IC50 (RT-112/84 cell line; Homo sapiens, RT112/84, 72 h) was 10 to 50 nM and the IC50 [1] was 1 to 5 nM.
Compound Nc1c(-c2c(Cl)cccc2Cl)nc2c3cc(-c4cnn(C5CCOCC5)c4)cnc3ccn12 [Example 35, 2-(2,6-Dichlorophenyl)-9-(1-(tetrahydro-2H-pyran-4-yl)-1H-pyrazol-4-yl)imidazo[2,1-f][1,6]naphthyridin-3-amine] has an IC50 (RT-112/84 cell line; Homo sapiens, RT112/84, 72 h) of 10 to 50 nM and an IC50 [1] of 1 to 5 nM.
CS(=O)(=O)CCn1cc(-c2cnc3ccn4c(C(F)F)c(-c5c(Cl)cccc5Cl)nc4c3c2)cn1 [Example 28, 2-(2,6-Dichlorophenyl)-3-(difluoromethyl)-9-(1-(2-(methylsulfonyl)ethyl)-1H-pyrazol-4-yl)imidazo[2,1-f][1,6]naphthyridine] showed an IC50 (RT-112/84 cell line; Homo sapiens, RT112/84, 72 h) of under 10 nM and an IC50 [1] of under 1 nM.
In the case of Cc1cccc(Cl)c1-c1nc2c3cc(-c4cnn(C5CCN(C)CC5)c4)cnc3ccn2c1CO [Example 11, (2-(2-Chloro-6-methylphenyl)-9-(1-(1-methylpiperidin-4-yl)-1H-pyrazol-4-yl)imidazo[2,1-J][1,6]naphthyridin-3-yl)methanol], the IC50 (RT-112/84 cell line; Homo sapiens, RT112/84, 72 h) is reported as 10 to 50 nM and the IC50 [1] is reported as 1 to 5 nM.
CC(C#N)n1cc(-c2cnc3ccn4c(C(F)F)c(-c5c(Cl)cccc5Cl)nc4c3c2)cn1 (centres unmarked) [Example 32, 2-(4-(2-(2,6-Dichlorophenyl)-3-(difluoromethyl)imidazo[2,1-f][1,6]naphthyridin-9-yl)-1H-pyrazol-1-yl)propanenitrile] was tested, and the IC50 (RT-112/84 cell line; Homo sapiens, RT112/84, 72 h) was under 10 nM and the IC50 [1] was under 1 nM.
With CC(=O)N1CCN(Cc2ccc(-c3cnc4ccn5c(CO)c(-c6c(Cl)cccc6Cl)nc5c4c3)cc2)CC1 [Example 9, 1-(4-(4-(2-(2,6-Dichlorophenyl)-3-(hydroxymethyl)imidazo[2,1-f][1,6]naphthyridin-9-yl)benzyl)piperazin-1-yl)ethan-1-one] the IC50 (RT-112/84 cell line; Homo sapiens, RT112/84, 72 h) was 10 to 50 nM and the IC50 [1] was 1 to 5 nM.
O=C(c1ccc(-c2cnc3ccn4c(CO)c(-c5c(Cl)cccc5Cl)nc4c3c2)cc1)N1CCOCC1 [Example 6, (4-(2-(2,6-Dichlorophenyl)-3-(hydroxymethyl)imidazo[2,1-f][1,6]naphthyridin-9-yl)phenyl)(morpholino)methanone] gave an IC50 (RT-112/84 cell line; Homo sapiens, RT112/84, 72 h) of 10 to 50 nM and an IC50 [1] of 1 to 5 nM.
In the case of O=C(CO)N1CCN(c2ccc(-c3cnc4ccn5c(CO)c(-c6c(Cl)cccc6Cl)nc5c4c3)cc2)CC1 [Example 10, 1-(4-(4-(2-(2,6-Dichlorophenyl)-3-(hydroxymethyl)imidazo[2,1-f][1,6]naphthyridin-9-yl)phenyl)piperazin-1-yl)-2-hydroxyethan-1-one], the IC50 (RT-112/84 cell line; Homo sapiens, RT112/84, 72 h) is reported as 10 to 50 nM and the IC50 [1] is reported as 1 to 5 nM.
In the case of CC(O)Cn1cc(-c2cnc3ccn4c(CO)c(-c5c(Cl)cccc5Cl)nc4c3c2)cn1 (single isomer, unassigned) [18 peak 2], the IC50 (RT-112/84 cell line) is reported as 10 to 50 nM and the IC50 [1] is reported as 1 to 5 nM.
OCCn1cc(-c2cnc3ccn4c(C(F)F)c(-c5c(Cl)cccc5Cl)nc4c3c2)cn1 [Example 31, 2-(4-(2-(2,6-Dichlorophenyl)-3-(difluoromethyl)imidazo[2,1-f][1,6]naphthyridin-9-yl)-1H-pyrazol-1-yl)ethan-1-ol] was tested, and the IC50 (RT-112/84 cell line; Homo sapiens, RT112/84, 72 h) was under 10 nM and the IC50 [1] was under 1 nM.
For O=C(CO)N1CCN(Cc2ccc(-c3cnc4ccn5c(CO)c(-c6c(Cl)cccc6Cl)nc5c4c3)cc2)CC1 [Example 8, 1-(4-(4-(2-(2,6-Dichlorophenyl)-3-(hydroxymethyl)imidazo[2,1-f][1,6]naphthyridin-9-yl)benzyl)piperazin-1-yl)-2-hydroxyethan-1-one], the IC50 (RT-112/84 cell line; Homo sapiens, RT112/84, 72 h) was 10 to 50 nM and the IC50 [1] was 1 to 5 nM.
Work on Cc1c(-c2c(Cl)cccc2Cl)nc2c3cc(-c4cnn(C5CN(C(=O)c6cn(C)nn6)C5)c4)cnc3ccn12 [Example 13, (3-(4-(2-(2,6-Dichlorophenyl)-3-methylimidazo[2,1-J][1,6]naphthyridin-9-yl)-1H-pyrazol-1-yl)azetidin-1-yl)(1-methyl-1H-1,2,3-triazol-4-yl)methanone] yielded an IC50 (RT-112/84 cell line; Homo sapiens, RT112/84, 72 h) of 10 to 50 nM and an IC50 [1] of 1 to 5 nM.

Reference: US12428420B2, “Tricyclic heterocycles as FGFR inhibitors” (Incyte Corporation, priority 2021, dated 2025)
